For one test, the target named is MDM2 (Homo sapiens, UniProt Q00987). In words: MDM2 binding screen of Libraries 3 and 4: displacement of fluorescent probe F-M8 at 750 nM macrocycle. The conditions noted are these: Panel b, Library 3: 63 scaffolds combinatorially acylated with 15 carboxylic acids at 30 picomole scale; displacement of fluorescent peptide probe; macrocycle 750 nM. The method, boiled down: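 Competition with nutlin-3a was run using the fluorescein conjugate. Library members came from scaffolds reacted 6 h at room temperature with carboxylic acids (20 equiv.), HBTU and DABCO in DMSO. Quenching was overnight in Tris-Cl pH 7.4 buffer with 0.01% Tween20.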
Sequence of MDM2 (Q00987 whole entry): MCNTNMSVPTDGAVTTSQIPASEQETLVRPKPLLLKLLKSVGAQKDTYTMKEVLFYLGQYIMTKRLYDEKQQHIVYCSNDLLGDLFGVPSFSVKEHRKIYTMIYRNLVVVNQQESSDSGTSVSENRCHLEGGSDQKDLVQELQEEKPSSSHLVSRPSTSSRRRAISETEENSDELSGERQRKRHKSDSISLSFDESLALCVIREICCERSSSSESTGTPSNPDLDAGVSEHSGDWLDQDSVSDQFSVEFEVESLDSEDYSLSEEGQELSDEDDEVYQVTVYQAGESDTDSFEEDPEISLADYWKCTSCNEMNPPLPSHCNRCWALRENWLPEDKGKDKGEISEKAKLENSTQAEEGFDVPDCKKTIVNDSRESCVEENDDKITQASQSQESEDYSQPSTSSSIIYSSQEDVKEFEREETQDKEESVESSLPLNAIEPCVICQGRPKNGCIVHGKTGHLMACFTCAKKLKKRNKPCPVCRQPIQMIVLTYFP
`Cn1cc(C[C@@H]2NC(=O)[C@H](CNC(=O)C3COc4ccccc4O3)NC(=O)[C@@H]3CN(CCO3)C(=O)CCSSCCNC2=O)c2ccccc21` (stereo partly drawn) [X-Cop-Dap-Me-Trp + Acid 115]: the “fraction of fluorescent probe displaced” value stood at 0.015.
Same read-out and setting: with `CN1C(=O)[C@H](CNC(=O)c2ccc(Cl)s2)NC(=O)[C@@H]2CN(CCO2)C(=O)CCSSCCNC(=O)[C@@H]1Cc1c[nH]c2ccccc12` [X-Cop-Dap-NMe-Trp + Acid 14] the figure was 0.028.
On the same count and under the same terms, under `CN1C(=O)[C@H](CNC(=O)c2ccc(Cl)cc2)NC(=O)[C@@H]2CN(CCO2)C(=O)CCSSCCNC(=O)[C@@H]1Cc1c[nH]c2ccccc12` [X-Cop-Dap-NMe-Trp + Acid 25] stands -0.00533; under `CN1C(=O)C(CNC(=O)C2CC2c2ccccc2)NC(=O)C2CN(CCO2)C(=O)CCSSCCNC(=O)C1Cc1c[nH]c2ccccc12` (stereo not drawn) [X-Cop-Dap-NMe-Trp + Acid 105], 0.018.
Still for that read-out and setting: under `CN1C(=O)C(CNC(=O)c2ccc3ccccc3c2)NC(=O)C2CN(CCO2)C(=O)CCSSCCNC(=O)C1Cc1c[nH]c2ccccc12` (stereo not drawn) [X-Cop-Dap-NMe-Trp + Acid 107] stands 0.011; under `O=C(NCC1NC(=O)C2CN(CCO2)C(=O)CCSSCCNC(=O)C(Cc2c[nH]c3ccccc23)NC1=O)c1ccc(Cl)cc1` (stereo not drawn) [X-Cop-Dap-Trp + Acid 25], 0.041.
As for `O=C(NC[C@@H]1NC(=O)[C@@H]2CN(CCO2)C(=O)CCSSCCNC(=O)[C@H](Cc2c[nH]c3ccccc23)NC1=O)c1ccc2ccccc2c1` [X-Cop-Dap-Trp + Acid 107], the “fraction of fluorescent probe displaced” value is 0.108.
Still for that read-out and setting: under `O=C(/C=C/c1ccc(OCc2ccccc2)cc1)NC[C@@H]1NC(=O)[C@@H]2CN(CCO2)C(=O)CCSSCCNC(=O)[C@H](Cc2c[nH]c3ccccc23)NC1=O` [X-Cop-Dap-Trp + Acid 110] stands -0.012.
The same measure, in the same setting: with `O=C(NC[C@@H]1NC(=O)[C@@H]2CN(CCO2)C(=O)CCSSCCNC(=O)[C@H](Cc2c[nH]c3ccccc23)NC1=O)c1cccc(Oc2ccccc2)c1` [X-Cop-Dap-Trp + Acid 111] the figure was 0.048; with `O=C(/C=C/c1ccc2ccccc2c1)NC[C@@H]1NC(=O)[C@@H]2CN(CCO2)C(=O)CCSSCCNC(=O)[C@H](Cc2c[nH]c3ccccc23)NC1=O` [X-Cop-Dap-Trp + Acid 112], 0.168.
On the same count and under the same terms, under `CC(Oc1cccc(Cl)c1)C(=O)NC[C@@H]1NC(=O)[C@@H]2CN(CCO2)C(=O)CCSSCCNC(=O)[C@H](Cc2c[nH]c3ccccc23)NC1=O` (stereo partly drawn) [X-Cop-Dap-Trp + Acid 113] stands -0.00533.
For `O=C(NC[C@@H]1NC(=O)[C@@H]2CN(CCO2)C(=O)CCSSCCNC(=O)[C@H](Cc2c[nH]c3ccccc23)NC1=O)C1COc2ccccc2O1` (stereo partly drawn) [X-Cop-Dap-Trp + Acid 115], the “fraction of fluorescent probe displaced” value was -0.00533.
For the molecule `O=C1CN(CCNC(=O)c2ccc(Cl)s2)C(=O)[C@@H]2CN(CCO2)C(=O)CCSSCCNC(=O)[C@H](Cc2cccc3ccccc23)N1` [X-Cop-N-Aeg-1-NaI + Acid 14], the “fraction of fluorescent probe displaced” value was -0.025.
On the same count and under the same terms, with `O=C1CN(CCNC(=O)c2ccc(Cl)cc2)C(=O)C2CN(CCO2)C(=O)CCSSCCNC(=O)C(Cc2cccc3ccccc23)N1` (centres unmarked) [X-Cop-N-Aeg-1-NaI + Acid 25] the figure was 0.008; with `O=C(C=Cc1ccc(Cl)cc1)NCCN1CC(=O)NC(Cc2cccc3ccccc23)C(=O)NCCSSCCC(=O)N2CCOC(C2)C1=O` (centres unmarked) [X-Cop-N-Aeg-1-NaI + Acid 108], 0.048; with `O=C(/C=C/c1ccc(OCc2ccccc2)cc1)NCCN1CC(=O)N[C@@H](Cc2cccc3ccccc23)C(=O)NCCSSCCC(=O)N2CCO[C@@H](C2)C1=O` [X-Cop-N-Aeg-1-NaI + Acid 110], 0.035.
The same measure, in the same setting: with `O=C1CN(CCNC(=O)c2cccc(Oc3ccccc3)c2)C(=O)[C@@H]2CN(CCO2)C(=O)CCSSCCNC(=O)[C@H](Cc2cccc3ccccc23)N1` [X-Cop-N-Aeg-1-NaI + Acid 111] the figure was -0.00533; with `CC(Oc1cccc(Cl)c1)C(=O)NCCN1CC(=O)N[C@@H](Cc2cccc3ccccc23)C(=O)NCCSSCCC(=O)N2CCO[C@@H](C2)C1=O` (some centres unmarked) [X-Cop-N-Aeg-1-NaI + Acid 113], 0.008.
Consider `O=C(CCS(=O)(=O)c1ccccc1)NCCN1CC(=O)NC(Cc2cccc3ccccc23)C(=O)NCCSSCCC(=O)N2CCOC(C2)C1=O` (centres unmarked) [X-Cop-N-Aeg-1-NaI + Acid 114], for which the “fraction of fluorescent probe displaced” value worked out at 0.015.
In the case of `O=C1CN(CCNC(=O)c2ccc(Cl)s2)C(=O)C2CN(CCO2)C(=O)CCSSCCNC(=O)C(Cc2ccc3ccccc3c2)N1` (centres unmarked) [X-Cop-N-Aeg-2-Nal + Acid 14], the “fraction of fluorescent probe displaced” value is listed as -0.019.
Turning to `O=C1CN(CCNC(=O)c2ccc(Cl)cc2)C(=O)[C@@H]2CN(CCO2)C(=O)CCSSCCNC(=O)[C@H](Cc2ccc3ccccc3c2)N1` [X-Cop-N-Aeg-2-Nal + Acid 25], the “fraction of fluorescent probe displaced” value came to 0.00133.
Same read-out and setting: with `O=C1CN(CCNC(=O)C2CC2c2ccccc2)C(=O)C2CN(CCO2)C(=O)CCSSCCNC(=O)C(Cc2ccc3ccccc3c2)N1` (centres unmarked) [X-Cop-N-Aeg-2-Nal + Acid 105] the figure was -0.015; with `O=C(/C=C/c1ccc2ccccc2c1)NCCN1CC(=O)N[C@@H](Cc2ccc3ccccc3c2)C(=O)NCCSSCCC(=O)N2CCO[C@@H](C2)C1=O` [X-Cop-N-Aeg-2-Nal + Acid 112], 0.035; with `O=C1CN(CCNC(=O)c2ccc(Cl)s2)C(=O)[C@@H]2CN(CCO2)C(=O)CCSSCCNC(=O)[C@H](Cc2c[nH]c3cc(Cl)ccc23)N1` [X-Cop-N-Aeg-Cl-Trp + Acid 14], -0.00533.
On the same count and under the same terms, under `O=C1CN(CCNC(=O)c2ccc3ccccc3c2)C(=O)[C@@H]2CN(CCO2)C(=O)CCSSCCNC(=O)[C@H](Cc2c[nH]c3cc(Cl)ccc23)N1` [X-Cop-N-Aeg-Cl-Trp + Acid 107] stands 0.00455; under `O=C1CN(CCNC(=O)C2COc3ccccc3O2)C(=O)[C@@H]2CN(CCO2)C(=O)CCSSCCNC(=O)[C@H](Cc2c[nH]c3cc(Cl)ccc23)N1` (some centres unmarked) [X-Cop-N-Aeg-Cl-Trp + Acid 115], 0.021.
On the same count and under the same terms, under `O=C1CN(CCNC(=O)c2ccc(Cl)s2)C(=O)[C@@H]2CN(CCO2)C(=O)CCSSCCNC(=O)[C@@H](Cc2c[nH]c3ccccc23)N1` [X-Cop-N-Aeg-D-Trp + Acid 14] stands -0.012; under `O=C(/C=C/c1ccc(Cl)cc1)NCCN1CC(=O)N[C@H](Cc2c[nH]c3ccccc23)C(=O)NCCSSCCC(=O)N2CCO[C@@H](C2)C1=O` [X-Cop-N-Aeg-D-Trp + Acid 108], 0.015; under `O=C1CN(CCNC(=O)C2COc3ccccc3O2)C(=O)[C@@H]2CN(CCO2)C(=O)CCSSCCNC(=O)[C@@H](Cc2c[nH]c3ccccc23)N1` (stereo partly drawn) [X-Cop-N-Aeg-D-Trp + Acid 115], -0.00533.
On to `Cn1cc(C[C@@H]2NC(=O)CN(CCNC(=O)c3ccc(Cl)cc3)C(=O)[C@@H]3CN(CCO3)C(=O)CCSSCCNC2=O)c2ccccc21` [X-Cop-N-Aeg-Me-Trp + Acid 25], for which the “fraction of fluorescent probe displaced” value turned out to be 0.028.
The same measure, in the same setting: under `Cn1cc(C[C@@H]2NC(=O)CN(CCNC(=O)c3ccc4ccccc4c3)C(=O)[C@@H]3CN(CCO3)C(=O)CCSSCCNC2=O)c2ccccc21` [X-Cop-N-Aeg-Me-Trp + Acid 107] stands 0.00455.
Consider `Cn1cc(C[C@@H]2NC(=O)CN(CCNC(=O)/C=C/c3ccc(Cl)cc3)C(=O)[C@@H]3CN(CCO3)C(=O)CCSSCCNC2=O)c2ccccc21` [X-Cop-N-Aeg-Me-Trp + Acid 108], for which the “fraction of fluorescent probe displaced” value amounted to 0.021.
Same read-out and setting: under `Cn1cc(C[C@@H]2NC(=O)CN(CCNC(=O)c3cccc(Oc4ccccc4)c3)C(=O)[C@@H]3CN(CCO3)C(=O)CCSSCCNC2=O)c2ccccc21` [X-Cop-N-Aeg-Me-Trp + Acid 111] stands -0.00533; under `Cn1cc(C[C@@H]2NC(=O)CN(CCNC(=O)/C=C/c3ccc4ccccc4c3)C(=O)[C@@H]3CN(CCO3)C(=O)CCSSCCNC2=O)c2ccccc21` [X-Cop-N-Aeg-Me-Trp + Acid 112], 0.028; under `Cn1cc(C[C@@H]2NC(=O)CN(CCNC(=O)CCS(=O)(=O)c3ccccc3)C(=O)[C@@H]3CN(CCO3)C(=O)CCSSCCNC2=O)c2ccccc21` [X-Cop-N-Aeg-Me-Trp + Acid 114], -0.012.

Still in this test, the particulars now being: Panel c, Library 4: best nine scaffolds and 15 additional carboxylic acids; displacement of fluorescent probe.
Consider `CCOc1ccc(C=CC(=O)NCC2NC(=O)C3CN(CCO3)C(=O)CCSSCCNC(=O)C(Cc3cn(C)c4ccccc34)NC2=O)cc1` (stereo not drawn) [X-Cop-Dap-Me-Trp + Acid 117], for which the “fraction of fluorescent probe displaced” value worked out at 0.052.
For the molecule `CCCOc1ccc(C=CC(=O)NCC2NC(=O)C3CN(CCO3)C(=O)CCSSCCNC(=O)C(Cc3cn(C)c4ccccc34)NC2=O)cc1` (stereo not drawn) [X-Cop-Dap-Me-Trp + Acid 118], the “fraction of fluorescent probe displaced” value was found to be 0.028.
Same read-out and setting: with `CC(=Cc1ccccc1)C(=O)NCC1NC(=O)C2CN(CCO2)C(=O)CCSSCCNC(=O)C(Cc2cn(C)c3ccccc23)NC1=O` (stereo not drawn) [X-Cop-Dap-Me-Trp + Acid 123] the figure was -0.037; with `CCOc1ccc(C=CC(=O)NCC2NC(=O)C3CN(CCO3)C(=O)CCSSCCNC(=O)C(Cc3c[nH]c4ccccc34)NC2=O)cc1` (stereo not drawn) [X-Cop-Dap-Trp + Acid 117], 0.199.
Regarding `CCCOc1ccc(C=CC(=O)NCC2NC(=O)C3CN(CCO3)C(=O)CCSSCCNC(=O)C(Cc3c[nH]c4ccccc34)NC2=O)cc1` (stereo not drawn) [X-Cop-Dap-Trp + Acid 118], the “fraction of fluorescent probe displaced” value is 0.158.
The same measure, in the same setting: under `O=C(C=Cc1cccc(C(F)(F)F)c1)NCC1NC(=O)C2CN(CCO2)C(=O)CCSSCCNC(=O)C(Cc2c[nH]c3ccccc23)NC1=O` (stereo not drawn) [X-Cop-Dap-Trp + Acid 122] stands 0.118.

Values taken from article PMC9250534, “Synthesis and direct assay of large macrocycle diversities by combinatorial late-stage modification at picomole scale” (Nature Communications, 2022).
